Assay results published in article PMC10017709, “Structural basis of selective cannabinoid CB2 receptor activation” (Nature Communications, 2023).
Where “and” joins values, the source holds several entries; their conditions need not be identical. Equal entries are not always repeated. Where two headings read alike, the source gives them in different places.

Columns and labels:
hCB2R [1] = biological target: T1, hCB2R (Homo sapiens, UniProt P34972); assay: [3H]RO6957022 displacement assay; assay type: binding; details: for percentage specific [3H]RO6957022 binding (displacement): individual replicates
T1 construct: host or cells: CHO-K1 (CHOK1_hCB2bgal, PathHunter), membranes
T1 sequence (P34972 whole entry): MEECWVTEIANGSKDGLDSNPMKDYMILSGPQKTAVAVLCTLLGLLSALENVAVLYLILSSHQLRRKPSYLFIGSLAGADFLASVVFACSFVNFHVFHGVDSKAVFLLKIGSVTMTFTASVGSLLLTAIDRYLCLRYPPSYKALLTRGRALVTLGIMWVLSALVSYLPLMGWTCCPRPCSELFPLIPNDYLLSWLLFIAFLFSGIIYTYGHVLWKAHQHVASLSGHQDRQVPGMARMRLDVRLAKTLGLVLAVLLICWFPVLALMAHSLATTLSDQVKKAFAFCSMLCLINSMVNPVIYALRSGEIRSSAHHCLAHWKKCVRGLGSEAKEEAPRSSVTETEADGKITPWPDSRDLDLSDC

CB2R WT [2] = biological target: T2, CB2R WT (Homo sapiens, UniProt P34972); assay: [35S]GTPγS G protein activation assay, CB2R WT; assay type: biochemical; details: for Emax: CB2R WT, read-out: Emax (%); for [35S]GTPγS binding, percentage of WT / [35S]GTPγS binding, percentage of CP55,940: individual replicates
T2 sequence (P34972 whole entry): as above

CB2R-L185^ECL2H [3] = biological target: T3, CB2R-L185^ECL2H (Homo sapiens, UniProt P34972, L185H); assay: [3H]CP55,940 displacement assay, CB2R L185H mutant; assay type: binding
T3 sequence (P34972 whole entry L185H): as the sequence (P34972 whole entry) above, with L185H counted along it

CB2R-E181^ECL2D = CB2R-E181^ECL2D (Homo sapiens, UniProt P34972, E181D); assay: [35S]GTPγS assay, CB2R E181D mutant; assay type: biochemical; details: E181D mutant
CB2R-E181^ECL2D, sequence (P34972 whole entry E181D): as the sequence (P34972 whole entry) above, with E181D counted along it

CB1R QuadrupleTM1,7 = assay: [35S]GTPγS assay, CB1R quadruple mutant; assay type: biochemical, human; details: CB1R Quadruple TM1,7; 10 µM agonist
CB2R-Quadruple^TM1,7 [4] = biological target: T4, CB2R-Quadruple^TM1,7 (Homo sapiens, UniProt P34972, C40S/K279T/K33Q/V36I); assay: [35S]GTPγS assay, CB2R quadruple mutant; assay type: biochemical; details: for [35S]GTPγS binding, percentage of WT: QuadrupleTM1,7, individual replicates
T4 sequence (P34972 whole entry K33Q/V36I/C40S/K279T): as the sequence (P34972 whole entry) above, with K33Q, V36I, C40S, K279T counted along it

CB1R-L359^6.51V = CB1R-L359^6.51V (Homo sapiens, UniProt P21554, L359V); assay: [35S]GTPγS assay, CB1R L359V mutant; assay type: biochemical; details: CB1R L359V; 10 µM agonist
CB1R-L359^6.51V, sequence (P21554 whole entry L359V): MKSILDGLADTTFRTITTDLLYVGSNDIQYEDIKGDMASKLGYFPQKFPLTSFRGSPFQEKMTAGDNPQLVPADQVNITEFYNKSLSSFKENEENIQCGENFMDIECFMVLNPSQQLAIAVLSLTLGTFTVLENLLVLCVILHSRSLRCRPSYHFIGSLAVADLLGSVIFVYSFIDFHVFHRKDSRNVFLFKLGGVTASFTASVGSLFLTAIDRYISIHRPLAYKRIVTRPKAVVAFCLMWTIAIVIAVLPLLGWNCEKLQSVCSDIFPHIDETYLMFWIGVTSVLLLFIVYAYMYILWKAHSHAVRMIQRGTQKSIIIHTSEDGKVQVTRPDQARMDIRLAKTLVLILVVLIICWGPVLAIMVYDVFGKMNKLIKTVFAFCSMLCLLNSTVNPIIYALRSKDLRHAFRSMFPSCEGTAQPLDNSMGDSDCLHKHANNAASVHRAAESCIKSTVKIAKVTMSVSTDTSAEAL

CB2R-L185^ECL2H [5] = biological target: T3, CB2R-L185^ECL2H; assay: [35S]GTPγS assay, CB2R L185H mutant; assay type: biochemical; details: L185H mutant
CB1R-H270^ECL2L = CB1R-H270^ECL2L (Homo sapiens, UniProt P21554, H270L); assay: [35S]GTPγS assay, CB1R H270L mutant; assay type: biochemical; details: CB1R H270L; 10 µM agonist
CB1R-H270^ECL2L, sequence (P21554 whole entry H270L): as the sequence (P21554 whole entry L359V) above, with H270L, V359L counted along it

CB2R-L182^ECL2I = CB2R-L182^ECL2I (Homo sapiens, UniProt P34972, L182I); assay: [35S]GTPγS assay, CB2R L182I mutant; assay type: biochemical; details: L182I mutant
CB2R-L182^ECL2I, sequence (P34972 whole entry L182I): as the sequence (P34972 whole entry) above, with L182I counted along it

CB2R-I110^3.29L = CB2R-I110^3.29L (Homo sapiens, UniProt P34972, I110L); assay: [3H]CP55,940 displacement assay, CB2R I110L mutant; assay type: binding
CB2R-I110^3.29L, sequence (P34972 whole entry I110L): as the sequence (P34972 whole entry) above, with I110L counted along it

CB1R D266ECL2E = biological target: T5, CB1R D266ECL2E (Homo sapiens, UniProt P21554, D266E); assay: [35S]GTPγS assay, CB1R D266E mutant; assay type: biochemical; details: CB1R D266E; 10 µM agonist
T5 construct: The WT CB1R and CB2R genes were subcloned into vector pcDNA3.1; HA signal peptide (N); expressed in transfected cells; host or cells: HEK293T (transient, membrane homogenates)
T5 sequence (P21554 whole entry D266E): as the sequence (P21554 whole entry L359V) above, with D266E, V359L counted along it

CB1R I267ECL2L = CB1R I267ECL2L (Homo sapiens, UniProt P21554, I267L); assay: [35S]GTPγS assay, CB1R I267L mutant; assay type: biochemical; details: CB1R I267L; 10 µM agonist
CB1R I267ECL2L, sequence (P21554 whole entry I267L): as the sequence (P21554 whole entry L359V) above, with I267L, V359L counted along it

hCB1R WT = hCB1R WT (Homo sapiens, UniProt P21554); assay: [35S]GTPγS G protein activation assay, CB1R WT; assay type: biochemical; details: CB1R WT; 10 µM agonist
hCB1R WT, sequence (P21554 whole entry): as the sequence (P21554 whole entry L359V) above, with V359L counted along it

CB2R-Quadruple^TM1,7 [6] = biological target: T4, CB2R-Quadruple^TM1,7; assay: [3H]CP55,940 displacement assay, CB2R quadruple mutant; assay type: binding; details: CB2R Quadruple TM1,7 mutant; <5 when curve fit not finished
CB2R WT [7] = biological target: T2, CB2R WT; assay: [3H]CP55,940 displacement assay, CB2R WT; assay type: binding
hCB2R [8] = biological target: T1, hCB2R; assay: [3H]RO6957022 competition association assay; assay type: binding; details: for percentage specific [3H]RO6957022 binding (competition association): individual replicates
[9] = at 10 µM compared to WT, read-out: Emax (%)

CCCCC/C=C\C/C=C\C/C=C\C/C=C\CCCC(=O)OC(CO)CO [2-AG, 2-arachidonoylglycerol]
Ki (hCB2R [1]; CHOK1_hCB2bgal membranes, 10 °C): 97.3 nM
percentage specific [3H]RO6957022 binding (displacement) (hCB2R [1]; log [agonist] (M) -5): -4.06% and 1.99% and 1.24%
percentage specific [3H]RO6957022 binding (displacement) (hCB2R [1]; log [agonist] (M) -6): 9.18% and 29.61% and 23.88%
percentage specific [3H]RO6957022 binding (displacement) (hCB2R [1]; log [agonist] (M) -7): 74.28% and 92.58% and 77.97%
percentage specific [3H]RO6957022 binding (displacement) (hCB2R [1]; log [agonist] (M) -8): 95.23% and 106.70% and 113.70%
Emax (CB2R WT [2]; maximum effect at 10 µM compared to WT (Suppl. Table 6)): 85 ± 2%
Emax (CB2R WT [2]; maximum effect compared to CP55,940): 93 ± 22%
[35S]GTPγS binding, percentage of WT (CB2R WT [2]; log [ligand] (M) -5): 81.88 percentage of WT and 83.76 percentage of WT and 88.90 percentage of WT
[35S]GTPγS binding, percentage of WT (CB2R WT [2]; log [ligand] (M) -6): 30.38 percentage of WT and 55.12 percentage of WT and 21.88 percentage of WT
[35S]GTPγS binding, percentage of WT (CB2R WT [2]; log [ligand] (M) -7): 23.64 percentage of WT and 24.41 percentage of WT and 16.38 percentage of WT
[35S]GTPγS binding, percentage of WT (CB2R WT [2]; log [ligand] (M) -8): 45.75 percentage of WT and 38.50 percentage of WT and 15.70 percentage of WT
EC50 (CB2R WT [2]; [35S]GTPγS, HEK293T membranes transiently expressing CB2R WT): 1260 nM
[35S]GTPγS binding, percentage of CP55,940 (CB2R WT [2]; log [agonist] (M) -5): 64.32% and 135.41% and 79.23%
[35S]GTPγS binding, percentage of CP55,940 (CB2R WT [2]; log [agonist] (M) -6): 23.86% and 33.33% and 42.53%
[35S]GTPγS binding, percentage of CP55,940 (CB2R WT [2]; log [agonist] (M) -7): 18.57% and 24.95% and 4.53%
[35S]GTPγS binding, percentage of CP55,940 (CB2R WT [2]; log [agonist] (M) -8): 35.93% and 23.91% and 2.02%
Ki (CB2R-L185^ECL2H [3]): 398 nM
EC50 (CB2R-E181^ECL2D; <5 when curve fit not finished): > 10000 nM
Emax (CB2R-E181^ECL2D; [9]): 22 ± 15%
Agonist-mediated activation (CB1R QuadrupleTM1,7): 1.8 ± 0.1 fold over its basal
EC50 (CB2R-Quadruple^TM1,7 [4]; Quadruple TM1,7 mutant, <5 when curve fit not finished): > 10000 nM
Emax (CB2R-Quadruple^TM1,7 [4]; Quadruple TM1,7 mutant, at 10 µM compared to WT, read-out: Emax (%)): 6 ± 4%
[35S]GTPγS binding, percentage of WT (CB2R-Quadruple^TM1,7 [4]; log [ligand] (M) -5): 11.95 percentage of WT and 6.85 percentage of WT and -0.68 percentage of WT
[35S]GTPγS binding, percentage of WT (CB2R-Quadruple^TM1,7 [4]; log [ligand] (M) -6): 26.61 percentage of WT and 0.18 percentage of WT
[35S]GTPγS binding, percentage of WT (CB2R-Quadruple^TM1,7 [4]; log [ligand] (M) -7): -4.94 percentage of WT and -35.40 percentage of WT and 2.05 percentage of WT
[35S]GTPγS binding, percentage of WT (CB2R-Quadruple^TM1,7 [4]; log [ligand] (M) -8): -0.27 percentage of WT and -23.76 percentage of WT and 1.32 percentage of WT
Agonist-mediated activation (CB1R-L359^6.51V): 1.4 ± 0.2 fold over its basal
EC50 (CB2R-L185^ECL2H [5]; HEK293T membranes): 1260 nM
Emax (CB2R-L185^ECL2H [5]; [9]): 171 ± 16%
Agonist-mediated activation (CB1R-H270^ECL2L): 1.5 ± 0.1 fold over its basal
EC50 (CB2R-L182^ECL2I; <5 when curve fit not finished): > 10000 nM
Emax (CB2R-L182^ECL2I; [9]): 15 ± 9%
Ki (CB2R-I110^3.29L): 1580 nM
Agonist-mediated activation (CB1R D266ECL2E): 1.5 ± 0.2 fold over its basal
Agonist-mediated activation (CB1R I267ECL2L): 1.1 ± 0.0 fold over its basal
Agonist-mediated activation (hCB1R WT): 1.3 ± 0.1 fold over its basal
Ki (CB2R-Quadruple^TM1,7 [6]): > 10000 nM
Ki (CB2R WT [7]): 1580 nM
Kd (hCB2R [8]; KD = koff/kon, read-out: Kinetic KD): 42.7 nM
percentage specific [3H]RO6957022 binding (competition association) (hCB2R [8]; Time 1 min): 2.75% and 8.28% and -0.30%
percentage specific [3H]RO6957022 binding (competition association) (hCB2R [8]; Time 3 min): 14.15% and 22.81% and 17.03%
percentage specific [3H]RO6957022 binding (competition association) (hCB2R [8]; Time 5 min): 22.93% and 20.44% and 8.60%
percentage specific [3H]RO6957022 binding (competition association) (hCB2R [8]; Time 7 min): 18.57% and 22.56% and 19.64%
percentage specific [3H]RO6957022 binding (competition association) (hCB2R [8]; Time 10 min): 21.07% and 23.19% and 30.43%
percentage specific [3H]RO6957022 binding (competition association) (hCB2R [8]; Time 20 min): 26.97% and 35.00% and 33.48%
percentage specific [3H]RO6957022 binding (competition association) (hCB2R [8]; Time 30 min): 25.36% and 45.58% and 22.89%
percentage specific [3H]RO6957022 binding (competition association) (hCB2R [8]; Time 45 min): 33.64% and 44.13% and 30.07%
percentage specific [3H]RO6957022 binding (competition association) (hCB2R [8]; Time 60 min): 37.87% and 46.21% and 40.22%
percentage specific [3H]RO6957022 binding (competition association) (hCB2R [8]; Time 90 min): 43.62% and 64.89% and 33.23%
percentage specific [3H]RO6957022 binding (competition association) (hCB2R [8]; Time 120 min): 44.54% and 60.70% and 44.33%
ET (engagement time) (hCB2R [8]; at 1 µM agonist, ET = 1/(kon ∙ 1 × 10-6)): 18.8 ± 3.61 s
